How the values were obtained:
GR = target: T1, GR (Homo sapiens, UniProt P04150); assay: In Vitro GR Luciferase Reporter Assay (antagonist mode, CHO-K1-GR-MMTV-Luc reporter cells); format: cell-based
T1 construct: expressed in transfected cells; host or cells: CHO-K1
T1 sequence (P04150 1-777): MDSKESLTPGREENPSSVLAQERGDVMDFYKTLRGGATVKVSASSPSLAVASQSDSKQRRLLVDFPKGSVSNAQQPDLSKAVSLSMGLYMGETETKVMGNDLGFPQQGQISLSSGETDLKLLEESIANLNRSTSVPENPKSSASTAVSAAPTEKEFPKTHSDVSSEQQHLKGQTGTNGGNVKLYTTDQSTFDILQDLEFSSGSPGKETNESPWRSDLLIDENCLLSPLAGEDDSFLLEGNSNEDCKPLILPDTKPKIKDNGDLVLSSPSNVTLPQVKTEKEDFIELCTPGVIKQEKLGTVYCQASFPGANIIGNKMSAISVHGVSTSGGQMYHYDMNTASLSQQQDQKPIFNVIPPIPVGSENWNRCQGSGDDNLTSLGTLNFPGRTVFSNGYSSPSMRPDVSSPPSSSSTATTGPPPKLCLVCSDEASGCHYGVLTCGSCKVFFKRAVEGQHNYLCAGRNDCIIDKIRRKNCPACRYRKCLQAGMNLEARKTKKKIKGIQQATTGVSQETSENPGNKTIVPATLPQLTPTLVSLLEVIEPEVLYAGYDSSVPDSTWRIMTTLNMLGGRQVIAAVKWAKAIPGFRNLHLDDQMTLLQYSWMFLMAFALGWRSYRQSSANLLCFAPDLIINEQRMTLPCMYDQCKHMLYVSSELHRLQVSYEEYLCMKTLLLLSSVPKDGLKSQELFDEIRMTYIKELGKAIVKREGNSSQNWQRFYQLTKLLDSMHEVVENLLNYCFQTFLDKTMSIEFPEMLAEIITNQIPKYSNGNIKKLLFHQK
Method in brief: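 CHO-K1-GR-MMTV-Luc cells in phenol red-free DMEM with 10% CSS, stimulated with 10 nM dexamethasone (final) and treated with 8-point 1:5 compound dilutions for about 18-24 h at 37° C. Luciferase measured by OneGlo luminescence; IC50 derived for inhibition of GR activity.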

CYP2C8 = target: T2, CYP2C8 (Homo sapiens, UniProt P10632); assay: CYP Inhibition Assay (CYP2C8, human liver microsomes, paclitaxel substrate); format: in vitro ADME; details: pH 7.4; pooled human liver microsomes 0.1 mg/mL, probe substrate paclitaxel
T2 construct: Pooled human microsomes were obtained from Sekisui XenoTech, KS; tissue Sekisui XenoTech, KS; host or cells: pooled human liver microsomes
T2 sequence (P10632 1-490): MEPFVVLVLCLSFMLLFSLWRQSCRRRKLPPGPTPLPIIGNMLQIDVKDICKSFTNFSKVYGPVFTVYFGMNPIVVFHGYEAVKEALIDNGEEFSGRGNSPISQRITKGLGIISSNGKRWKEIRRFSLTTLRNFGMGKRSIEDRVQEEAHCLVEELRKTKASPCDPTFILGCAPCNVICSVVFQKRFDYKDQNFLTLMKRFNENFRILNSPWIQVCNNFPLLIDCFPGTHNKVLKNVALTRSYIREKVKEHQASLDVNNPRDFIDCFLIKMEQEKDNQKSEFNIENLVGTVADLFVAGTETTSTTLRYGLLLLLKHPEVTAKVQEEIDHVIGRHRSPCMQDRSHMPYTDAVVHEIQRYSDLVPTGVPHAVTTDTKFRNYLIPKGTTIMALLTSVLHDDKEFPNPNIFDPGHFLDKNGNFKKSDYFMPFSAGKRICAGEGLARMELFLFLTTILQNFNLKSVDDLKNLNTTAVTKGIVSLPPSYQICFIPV
Method in brief: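 Pooled human liver microsomes (0.1 mg/mL) in 50 mM potassium phosphate pH 7.4 with compound, started with 1 mM NADPH, 5 min at 37° C, duplicate.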

[1] = antagonist mode, 10 nM Dexamethasone

IC50 (GR; [1])	inhibition at 5 min (CYP2C8)	IC50 (GR; antagonist assay with 10 nM Dexamethasone, 18-24 hours)	SMILES
≤ 0.1 µM	25 to 50%		CC(C)N([C@H]1CCC2=Cc3c(cnn3-c3ccc(F)cc3)C[C@]2(C(=O)c2ncc(C(F)(F)F)s2)C1)S(=O)(=O)c1ncn(C)n1 [Example 327, N-((4aS,6S)-1-(4-fluorophenyl)-4a-(5-(trifluoromethyl)thiazole-2-carbonyl)-4,4a,5,6,7,8-hexahydro-1H-benzo[f]indazol-6-yl)-N-isopropyl-1-methyl-1H-1,2,4-triazole-3-sulfonamide]
≤ 0.1 µM	25 to 50%		O=C(c1cc(F)ccn1)[C@]12Cc3cnn(-c4ccc(F)cc4)c3C=C1CC[C@H](N(C1CC1)S(=O)(=O)c1ccc(Cl)nc1)C2 [Example 320, 6-chloro-N-cyclopropyl-N-((4aS,6S)-1-(4-fluorophenyl)-4a-(4-fluoropicolinoyl)-4,4a,5,6,7,8-hexahydro-1H-benzo[f]indazol-6-yl)pyridine-3-sulfonamide]
≤ 0.1 µM	25 to 50%		Cn1cc(S(=O)(=O)N(CC(F)F)[C@H]2CCC3=Cc4c(cnn4-c4ccc(F)cc4)C[C@]3(C(=O)c3ncc(C(F)(F)F)s3)C2)nn1 [Example 350, N-(2,2-difluoroethyl)-N-((4aS,6S)-1-(4-fluorophenyl)-4a-(5-(trifluoromethyl)thiazole-2-carbonyl)-4,4a,5,6,7,8-hexahydro-1H-benzo[f]indazol-6-yl)-1-methyl-1H-1,2,3-triazole-4-sulfonamide]
≤ 0.1 µM	25 to 50%		Cn1cnc(S(=O)(=O)N(C2CC(F)(F)C2)[C@H]2CCC3=Cc4c(cnn4-c4ccc(F)cc4)C[C@]3(C(=O)c3cc(Cl)ccn3)C2)c1 [Example 339, N-((4aS,6S)-4a-(4-chloropicolinoyl)-1-(4-fluorophenyl)-4,4a,5,6,7,8-hexahydro-1H-benzo[f]indazol-6-yl)-N-(3,3-difluorocyclobutyl)-1-methyl-1H-imidazole-4-sulfonamide]
≤ 0.1 µM	25 to 50%		CC(C)N([C@H]1CCC2=Cc3c(cnn3-c3ccc(F)cc3)C[C@]2(C(=O)c2cc(C(F)(F)F)ccn2)C1)S(=O)(=O)c1ncn(C)n1 [Example 328, N-((4aS,6S)-1-(4-fluorophenyl)-4a-(4-(trifluoromethyl)picolinoyl)-4,4a,5,6,7,8-hexahydro-1H-benzo[f]indazol-6-yl)-N-isopropyl-1-methyl-1H-1,2,4-triazole-3-sulfonamide]

The next lines start with the molecule.

SMILES	IC50 (GR; [1])	inhibition at 5 min (CYP2C8)	IC50 (GR; antagonist assay with 10 nM Dexamethasone, 18-24 hours)
CC(C)N([C@H]1CCC2=Cc3c(cnn3-c3ccc(F)cc3)C[C@]2(C(=O)c2cc(F)ccn2)C1)S(=O)(=O)c1ccn(C)n1 [Example 241, N-((4aS,6S)-1-(4-fluorophenyl)-4a-(4-fluoropicolinoyl)-4,4a,5,6,7,8-hexahydro-1H-benzo[f]indazol-6-yl)-N-isopropyl-1-methyl-1H-pyrazole-3-sulfonamide]	≤ 0.1 µM	75 to 90%	
Cn1cc(S(=O)(=O)N(C2CC2)[C@H]2CCC3=Cc4c(cnn4-c4ccc(F)cc4)C[C@]3(C(=O)c3cc(C(F)(F)F)ccn3)C2)nn1 [Example 222, N-cyclopropyl-N-((4aS,6S)-1-(4-fluorophenyl)-4a-(4-(trifluoromethyl)picolinoyl)-4,4a,5,6,7,8-hexahydro-1H-benzo[f]indazol-6-yl)-1-methyl-1H-1,2,3-triazole-4-sulfonamide]	≤ 0.1 µM	50 to 75%	
Cn1ccc(S(=O)(=O)N(CC2CC2)[C@H]2CCC3=Cc4c(cnn4-c4ccc(F)cc4)C[C@]3(C(=O)c3cc(C(F)(F)F)ccn3)C2)n1 [Example 178, N-(cyclopropylmethyl)-N-((4aS,6S)-1-(4-fluorophenyl)-4a-(4-(trifluoromethyl)picolinoyl)-4,4a,5,6,7,8-hexahydro-1H-benzo[f]indazol-6-yl)-1-methyl-1H-pyrazole-3-sulfonamide]	≤ 0.1 µM	25 to 50%	
Cn1ccc(S(=O)(=O)N([C@H]2CCC3=Cc4c(cnn4-c4ccc(F)cc4)C[C@]3(C(=O)c3cc(Cl)ccn3)C2)[C@H]2C[C@@](C)(O)C2)n1 [Example 288, N-((4aS,6S)-4a-(4-chloropicolinoyl)-1-(4-fluorophenyl)-4,4a,5,6,7,8-hexahydro-1H-benzo[f]indazol-6-yl)-N-((1s,3R)-3-hydroxy-3-methylcyclobutyl)-1-methyl-1H-pyrazole-3-sulfonamide]	≤ 0.1 µM	≤ 25%	
Cn1ccc(S(=O)(=O)N(C2COC2)[C@H]2CCC3=Cc4c(cnn4-c4ccc(F)cc4)C[C@]3(C(=O)c3ncc(C(F)(F)F)s3)C2)n1 [Example 196, N-((4aS,6S)-1-(4-fluorophenyl)-4a-(5-(trifluoromethyl)thiazole-2-carbonyl)-4,4a,5,6,7,8-hexahydro-1H-benzo[f]indazol-6-yl)-1-methyl-N-(oxetan-3-yl)-1H-pyrazole-3-sulfonamide]	≤ 0.1 µM	50 to 75%	
CN([C@H]1CCC2=Cc3c(cnn3-c3ccc(F)cc3)C[C@]2(C(=O)c2cc(C(F)(F)F)ccn2)C1)S(=O)(=O)c1cn(C)nn1 [Example 170, N-((4aS,6S)-1-(4-fluorophenyl)-4a-(4-(trifluoromethyl)picolinoyl)-4,4a,5,6,7,8-hexahydro-1H-benzo[f]indazol-6-yl)-N,1-dimethyl-1H-1,2,3-triazole-4-sulfonamide]	≤ 0.1 µM	≤ 25%	
O=C(c1ccc(C(F)(F)F)cn1)[C@]12Cc3cnn(-c4ccc(F)cc4)c3C=C1CC[C@H](S(=O)(=O)c1ccn(C3CC3)n1)C2 [Example 309, ((4aS,6S)-6-((1-cyclopropyl-1H-pyrazol-3-yl)sulfonyl)-1-(4-fluorophenyl)-1,4,5,6,7,8-hexahydro-4aH-benzo[f]indazol-4a-yl)(5-(trifluoromethyl)pyridin-2-yl)methanone]	≤ 0.1 µM	≤ 25%	
Cn1ccc(S(=O)(=O)N(C2CC2)[C@H]2CCC3=Cc4c(cnn4-c4ccc(F)cc4)C[C@]3(C(=O)c3cc(Cl)ccn3)C2)n1 [Example 225, N-((4aS,6S)-4a-(4-chloropicolinoyl)-1-(4-fluorophenyl)-4,4a,5,6,7,8-hexahydro-1H-benzo[f]indazol-6-yl)-N-cyclopropyl-1-methyl-1H-pyrazole-3-sulfonamide]	≤ 0.1 µM	50 to 75%	
CCn1ncc(S(=O)(=O)[C@H]2CCC3=Cc4c(cnn4-c4ccc(F)cc4)C[C@]3(C(=O)c3cc(C(F)(F)F)ccn3)C2)n1 [Example 52, ((4aS,6S)-6-((2-ethyl-2H-1,2,3-triazol-4-yl)sulfonyl)-1-(4-fluorophenyl)-1,4,5,6,7,8-hexahydro-4aH-benzo[f]indazol-4a-yl)(4-(trifluoromethyl)pyridin-2-yl)methanone]		75 to 90%	≤ 0.1 µM
Cn1cc(S(=O)(=O)N(CC(F)(F)F)[C@H]2CCC3=Cc4c(cnn4-c4ccc(F)cc4)C[C@]3(C(=O)c3ncc(C(F)(F)F)s3)C2)nn1 [Example 290, N-((4aS,6S)-1-(4-fluorophenyl)-4a-(5-(trifluoromethyl)thiazole-2-carbonyl)-4,4a,5,6,7,8-hexahydro-1H-benzo[f]indazol-6-yl)-1-methyl-N-(2,2,2-trifluoroethyl)-1H-1,2,3-triazole-4-sulfonamide]	≤ 0.1 µM	25 to 50%	

— patent publication US20210122730A1, “GLUCOCORTICOID RECEPTOR MODULATORS” (ORIC Pharmaceuticals, Inc., priority 2017, published 2021)
